# Assay: in vitro
# Conditions: human, hela cells, % viability
compound,measurement,setting,value
CN(CC(=O)NCc1ccc(Cl)cc1)S(=O)(=O)Cc1ccc(C#N)cc1 [CBK305899],"viability at 28.5 h, 10 µM",,92.3%
Cc1nn(C)cc1-c1cncn1C(CCN(C)C)c1ccccc1 (stereo not shown) [CBK281987],"viability at 28.5 h, 10 µM",,92.3%
O=C(Nc1ccccc1-n1cccc1)C1Cc2c([nH]c3ccccc23)C2(CCN(Cc3ccccc3)C2)N1 (stereo not shown) [CBK059395],"viability at 28.5 h, 10 µM",,95.9%
O=C(O)CCC(=O)Nc1ccc(N2CCN(CCO)CC2)cc1 [CBK078486],"viability at 28.5 h, 10 µM",,94.5%
Nc1ncc(-c2ccc3c(c2)OCO3)nc1N1CCC(C(=O)O)CC1 [CBK064074],"viability at 28.5 h, 10 µM",,101%
CN(Cc1cnn(C)c1)C(=O)c1cc(O)nc2ccccc12 [CBK251706],"viability at 28.5 h, 10 µM",,106%
CCc1ccc(C(=O)Nc2ccc(NC(C)=O)cc2C(F)(F)F)cc1 [CBK295202],"viability at 28.5 h, 10 µM",,84.1%
O=C(c1cnn(-c2ccc(Cl)cc2Cl)c1)N1CCOCC1c1ncon1 (stereo not shown) [CBK304231],"viability at 28.5 h, 10 µM",,84.5%
CCc1n[nH]c(SCc2ccc(Br)cc2)n1 [CBK265221],"viability at 28.5 h, 10 µM",,90.9%
FC(F)(F)c1cc(/C=C/c2cccs2)n[nH]1 [CBK020924],"viability at 28.5 h, 10 µM",,92.1%
CCCn1c(SCC(=O)N2CCN(C(=O)c3cccs3)CC2)n[nH]c1=O [CBK297109],"viability at 28.5 h, 10 µM",,97.6%
Cc1cc(C(=O)N2CCC(c3nn(C)c4ncccc34)CC2)cs1 [CBK284987],"viability at 28.5 h, 10 µM",,104%
COC(=O)c1c(NC(=O)CC2NCCNC2=O)sc(C)c1C (stereo not shown) [CBK269447],"viability at 28.5 h, 10 µM",,92.1%
COc1ccccc1C(=O)Cn1c(=O)n(S(=O)(=O)c2ccccc2)c2ccccc21 [CBK106497],"viability at 28.5 h, 10 µM",,90.2%
FC(F)Oc1ccc(-c2ccnc(S)n2)cc1 [CBK288385],"viability at 28.5 h, 10 µM",,91.9%
O=C(O)CN1C(=O)C2(CC(=O)N(Cc3ccccc3)C2=O)c2cc(F)ccc21 (stereo not shown) [CBK076173],"viability at 28.5 h, 10 µM",,99.3%
CC(C)(C)C1CCc2c(sc(NC(=O)CCC(=O)O)c2C(=O)Nc2ccccc2C(F)(F)F)C1 (stereo not shown) [CBK264143],"viability at 28.5 h, 10 µM",,100%
O=C(O)C1CCN(C(=O)c2ccc3nsnc3c2)CC1 [CBK057344],"viability at 28.5 h, 10 µM",,99.8%
Nc1ncn(Cc2ccccc2)c2nc(SCC(=O)O)nc1-2 [CBK267027],"viability at 28.5 h, 10 µM",,99.2%
CCCN1CCC(NC(=O)c2cccc(S(N)(=O)=O)c2)CC1 [CBK305956],"viability at 28.5 h, 10 µM",,90.6%
O=C(CN1CCOCC1)Nc1ccc(NC(=O)CN2CCOCC2)c(Cl)c1 [CBK264243],"viability at 28.5 h, 10 µM",,112%
CCCC(C(=O)NC(C)(C)CN1CCCCC1)n1nc(C)cc1C (stereo not shown) [CBK282061],"viability at 28.5 h, 10 µM",,94.8%
O=c1[nH]nc2c3c4c(sc3ncn12)CCCC4 [CBK284235],"viability at 28.5 h, 10 µM",,56.8%
Cc1noc([C@@H]2C[C@H](NC(=O)c3ccc(C#N)cc3)CN2C)n1 [CBK288872],"viability at 28.5 h, 10 µM",,97.6%
O=C(Nc1ccccc1F)N1CCC2(CC1)OCc1cc(-c3ccco3)ccc1O2 [CBK060597],"viability at 28.5 h, 10 µM","bulk resorufin, single well",92%
O=C(O)CN1C(=O)/C(=C2/C(=O)N(Cc3ccccc3Cl)c3ccccc32)SC1=S [CBK265570],"viability at 28.5 h, 10 µM",,95.6%
CC(C)(N)CNC(=O)c1cc(-c2ccc(Cl)cc2)[nH]n1 [CBK116554],"viability at 28.5 h, 10 µM",,91.5%
CC(=O)Nc1cc(C(=O)CSc2nnnn2-c2ccc(C)c(C)c2)ccc1O [CBK295143],"viability at 28.5 h, 10 µM",,90.9%
O=[N+]([O-])c1ccc2nc(Sc3nc4ccccc4[nH]3)sc2c1 [CBK263356],"viability at 28.5 h, 10 µM",,89.8%
Nc1nc2c(ccn2[C@@H]2O[C@H](CO)[C@H](O)C2O)c(=O)[nH]1 (stereo partly shown) [CBK201190],"viability at 28.5 h, 10 µM",,92%
O=C(CSc1ncnc2scc(-c3ccc(Cl)cc3)c12)Nc1nsc(-c2ccccc2)n1 [CBK266473],"viability at 28.5 h, 10 µM",,96.6%
C[C@@H](Cn1nc2c(cc1=O)CCCC2)NC(=O)c1ccc(F)cc1 [CBK284562],"viability at 28.5 h, 10 µM",,91.3%
CCn1c(CN2CCCC2c2nc(N(C)C)ncc2-c2ccccc2)nc2ccccc21 (stereo not shown) [CBK286070],"viability at 28.5 h, 10 µM",,83.4%
CS(=O)(=O)Nc1nccnc1OC1CCN(CCCO)CC1 [CBK084275],"viability at 28.5 h, 10 µM",,90.9%
CCn1cc(-c2cncn2CCN(C)C2CCCC2)cn1 [CBK281551],"viability at 28.5 h, 10 µM",,90.7%
COc1ccc(C2(C(=O)NCCc3c[nH]cn3)CC2)cc1 [CBK149834],"viability at 28.5 h, 10 µM",,97.8%
CN1C[C@@H](NC(=O)c2ccc(C#N)cc2)C[C@H]1c1nc(-c2ccc(F)cc2)no1 [CBK288865],"viability at 28.5 h, 10 µM",,92.1%
O=C(O)C1CSC(c2ccc([N+](=O)[O-])cc2)N1 (stereo not shown) [CBK260909],"viability at 28.5 h, 10 µM",,103%
c1ccc(CNc2nc(-c3ccco3)cn3ccnc23)cc1 [CBK037955],"viability at 28.5 h, 10 µM",,90.6%
CC(=O)c1cccc(NC(=O)/C(=C\c2cccnc2)NC(=O)c2ccc(C)cc2)c1 [CBK262456],"viability at 28.5 h, 10 µM",,88.6%
CN1CCN(C(=O)c2ccc(NS(=O)(=O)c3cc(Cl)sc3Cl)cc2)CC1 [CBK034549],"viability at 28.5 h, 10 µM",,94%
c1cc(-c2nccnc2OC2CCCCC2)ccn1 [CBK106727],"viability at 28.5 h, 10 µM",,87.8%
CCN1CCC2(CCC1=O)CN(Cc1cncn1CC(C)C)CCN2C (stereo not shown) [CBK306947],"viability at 28.5 h, 10 µM",,96%
NC(=O)CSc1nnc(COc2cccc(Cl)c2)n1-c1ccccc1 [CBK267685],"viability at 28.5 h, 10 µM",,88.9%
CC(=O)N1CCc2c(sc(NC(=O)c3ccc(C)cc3)c2C#N)C1 [CBK304411],"viability at 28.5 h, 10 µM",,52.6%
COC(=O)c1c(NC(=S)Nc2cccc(S(=O)(=O)N3CCOCC3)c2)sc2c1CCC2 [CBK267054],"viability at 28.5 h, 10 µM",,93.8%
COc1ccc(N2C(=O)/C(=C/c3cc(C)n(-c4cccc(C(=O)O)c4C)c3C)C(=O)NC2=S)cc1 [CBK264315],"viability at 28.5 h, 10 µM","bulk resorufin, single well",96.6%
CC(=O)NCCSc1nc2cc(Cl)c(Cl)cc2nc1N1CCCC1 [CBK103701],"viability at 28.5 h, 10 µM",,96.3%
Fc1ccc(C(c2nnnn2C2CCCCC2)N2CCCCC2)cc1 (stereo not shown) [CBK141670],"viability at 28.5 h, 10 µM",,94.9%
COC(=O)c1ccccc1NC(=O)CN(c1cccc(Cl)c1Cl)S(C)(=O)=O [CBK264612],"viability at 28.5 h, 10 µM",,115%
CC(C)c1nnc(C2(c3ccc(Br)cc3)CCOCC2)o1 [CBK306230],"viability at 28.5 h, 10 µM",,86.4%
OCCCNc1nccnc1-c1ccco1 [CBK037346],"viability at 28.5 h, 10 µM",,99.2%
COc1ccc(NC(=O)CN2CCN(c3ccccc3OC)CC2)c([N+](=O)[O-])c1 [CBK269188],"viability at 28.5 h, 10 µM",,94.7%
Cc1ccc(CN(CCCN(C)C)Cc2cnc(C)n2C)o1 [CBK283188],"viability at 28.5 h, 10 µM",,95.4%
Cn1c(C(=O)NCCN2CCOCC2)cc2oc(-c3ccccc3)nc2c1=O [CBK056726T],"viability at 28.5 h, 10 µM",,87.8%
COC(=O)CCCC(=O)n1ccn(-c2cccc(C(F)(F)F)c2)c1=O [CBK106580],"viability at 28.5 h, 10 µM",,87.6%
Cn1nccc1NS(=O)(=O)c1ccc(F)cc1 [CBK050484],"viability at 28.5 h, 10 µM",,106%
Cc1ccc(OCc2nc(C)c(C(=O)N3CCCC(C)C3)s2)cc1 (stereo not shown) [CBK305356],"viability at 28.5 h, 10 µM",,94.3%
CCOc1ccc(N2C(=O)CC(NC3CCN(c4ncccn4)CC3)C2=O)cc1 (stereo not shown) [CBK269972],"viability at 28.5 h, 10 µM",,112%
O=[N+]([O-])c1cccnc1Oc1cccc2cccnc12 [CBK002760],"viability at 28.5 h, 10 µM",,97.4%
CCOC(=O)Cc1csc(NS(=O)(=O)c2cn(C)cn2)n1 [CBK000888],"viability at 28.5 h, 10 µM",,112%
CCOc1ccc(C(O)Cn2c(=N)n(CCN3CCCCC3)c3ccccc32)cc1 (stereo not shown) [CBK262913C],"viability at 28.5 h, 10 µM",,111%
COc1cccc(OC)c1-c1cn2ccnc2c(NC2CC2)n1 [CBK038020],"viability at 28.5 h, 10 µM",,104%
O=C(Nc1ccc2c(c1)OCO2)C1CCN(S(=O)(=O)c2ccc(Oc3ccccc3)cc2)CC1 [CBK269648],"viability at 28.5 h, 10 µM",,85.1%

# Source: article PMC12040169 (PLOS Biology, 2025)
